Structures can show the parent of a compound that is named as a salt.
Molecular target: PARP-1 (poly[ADP-ribose] polymerase 1) enzyme (Homo sapiens (Human), UniProt P09874)
Assay: PARP-1 (poly[ADP-ribose] polymerase 1) enzyme inhibitory ability, Trevigen assay kit
Type: biochemical
Conditions: for inhibition at 0.001 µM: 1 nM compound, read-out: PAR P-1 Inhibitory ability at 1 nM
In short: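 After the 1 hour PARP reaction, wells were washed with PBS containing 0.1% triton X-100 and then PBS. Strep-HRP (50 μL) was bound for 1 hour, wells washed again, and 50 μL of TACS-sapphire substrate developed 15 minutes in the dark. Reactions were stopped with 50 μL of 5% phosphoric acid and absorbance read at 450 nm on a Victor3 reader.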

Chain of PARP-1 (poly[ADP-ribose] polymerase 1) enzyme (P09874 whole entry): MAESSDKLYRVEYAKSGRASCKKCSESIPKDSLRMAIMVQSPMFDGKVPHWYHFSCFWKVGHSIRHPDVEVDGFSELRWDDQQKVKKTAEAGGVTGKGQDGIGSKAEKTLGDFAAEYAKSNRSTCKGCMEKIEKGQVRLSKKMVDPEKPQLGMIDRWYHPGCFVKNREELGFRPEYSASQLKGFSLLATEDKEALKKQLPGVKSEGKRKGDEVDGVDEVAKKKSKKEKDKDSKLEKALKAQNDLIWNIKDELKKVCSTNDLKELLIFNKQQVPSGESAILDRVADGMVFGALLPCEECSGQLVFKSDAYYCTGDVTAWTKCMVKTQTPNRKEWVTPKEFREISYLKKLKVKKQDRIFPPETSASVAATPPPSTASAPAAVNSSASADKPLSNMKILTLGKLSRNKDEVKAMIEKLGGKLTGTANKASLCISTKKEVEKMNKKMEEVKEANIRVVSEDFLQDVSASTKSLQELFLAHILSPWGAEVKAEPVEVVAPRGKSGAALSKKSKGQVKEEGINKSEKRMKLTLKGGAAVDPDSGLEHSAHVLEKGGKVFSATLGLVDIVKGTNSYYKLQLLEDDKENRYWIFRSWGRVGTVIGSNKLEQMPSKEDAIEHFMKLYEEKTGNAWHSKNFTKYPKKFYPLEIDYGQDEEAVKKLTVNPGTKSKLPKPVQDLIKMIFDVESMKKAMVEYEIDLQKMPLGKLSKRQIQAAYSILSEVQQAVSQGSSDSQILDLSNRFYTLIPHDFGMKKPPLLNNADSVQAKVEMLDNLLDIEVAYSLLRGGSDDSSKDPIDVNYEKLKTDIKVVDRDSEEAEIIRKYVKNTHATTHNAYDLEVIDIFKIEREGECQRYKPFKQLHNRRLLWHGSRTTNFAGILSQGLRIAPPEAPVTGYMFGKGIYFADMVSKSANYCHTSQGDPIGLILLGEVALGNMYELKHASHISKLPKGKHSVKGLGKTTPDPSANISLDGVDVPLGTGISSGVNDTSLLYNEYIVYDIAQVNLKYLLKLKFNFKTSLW

SMILES | inhibition at 0.001 µM [%] | IC50 (PARP-1 enzyme activity) [nM]
Cc1cc(F)cc2c(=O)[nH]c(CCC(=O)N3CC=C(c4cc(C#N)ccc4F)CC3)cc12 [Example 160, 4-fluoro-3-(1-(3-(7-fluoro-5-methyl-1-oxo-1,2-dihydroisoquinolin-3-yl)propanoyl)-1,2,3,6-tetrahydropyridin-4-yl)benzonitrile] | < 50 | 
Cc1cc(F)cc2c(=O)[nH]c(CCC(=O)N3CC=C(c4ccc(F)cc4C#N)CC3)cc12 [Example 161, 5-fluoro-2-(1-(3-(7-fluoro-5-methyl-1-oxo-1,2-dihydroisoquinolin-3-yl)propanoyl)-1,2,3,6-tetrahydropyridin-4-yl)benzonitrile] | < 50 | 
Cc1cc(F)cc2c(=O)[nH]c(CCC(=O)N3CC=C(c4ccc(F)cc4F)CC3)cc12 [Example 162, 3-(3-(4-(2,4-difluorophenyl)-3,6-dihydropyridin-1(2H)-yl)-3-oxopropyl)-7-fluoro-5-methylisoquinolin-1(2H)-one] | < 50 | 
Cc1cc(F)cc2c(=O)[nH]c(CCC(=O)N3CC=C(c4cc(F)cc(C#N)c4)CC3)cc12 [Example 163, 3-fluoro-5-(1-(3-(7-fluoro-5-methyl-1-oxo-1,2-dihydroisoquinolin-3-yl)propanoyl)-1,2,3,6-tetrahydropyridin-4-yl)benzonitrile] | < 50 | 
Cc1cc(F)cc2c(=O)[nH]c(CCC(=O)N3CC=C(c4cccc(F)c4)CC3)cc12 [Example 164, 7-fluoro-3-(3-(4-(3-fluorophenyl)-3,6-dihydropyridin-1(2H)-yl)-3-oxopropyl)-5-methylisoquinolin-1(2H)-one] | < 50 | 
Cc1cc(F)cc2c(=O)[nH]c(CCC(=O)N3CCN(c4cc(F)cc(C#N)c4)CC3)cc12 [Example 166, 3-fluoro-5-(4-(3-(7-fluoro-5-methyl-1-oxo-1,2-dihydroisoquinolin-3-yl)propanoyl)piperazin-1-yl)benzonitrile] | < 50 | 
Cc1cc(F)cc2c(=O)[nH]c(CCC(=O)N3CCN(c4cccc(F)c4)CC3)cc12 [Example 167, 7-fluoro-3-(3-(4-(3-fluorophenyl)piperazin-1-yl)-3-oxopropyl)-5-methylisoquinolin-1(2H)-one] | < 50 | 
Cc1cc(F)cc2c(=O)[nH]c(CCC(=O)N3CC=C(c4ccnc(F)c4)CC3)cc12 [Example 168, 7-fluoro-3-(3-(2′-fluoro-3,6-dihydro-[4,4′-bipyridine]-1(2H)-yl)-3-oxopropyl)-5-methylisoquinolin-1(2H)-one] | < 50 | 
O=C(CCc1cc2cccc(F)c2c(=O)[nH]1)N1CCN(C(=O)C2CCCCC2)CC1 [Example 170, 3-(3-(4-(cyclohexanecarbonyl)piperazin-1-yl)-3-oxopropyl)-8-fluoroisoquinolin-1(2H)-one] | < 50 | 
Cc1ccc(F)c2c(=O)[nH]c(CCC(=O)N3CCN(C(=O)C4CCCCC4)CC3)cc12 [Example 171, 3-(3-(4-(cyclohexanecarbonyl)piperazin-1-yl)-3-oxopropyl)-8-fluoro-5-methylisoquinolin-1(2H)-one] | < 50 | 
O=C(CCc1cc2ccc(F)cc2c(=O)[nH]1)N1CCN(C(=O)C2CCCCC2)CC1 [Example 172, 3-(3-(4-(cyclohexanecarbonyl)piperazin-1-yl)-3-oxopropyl)-7-fluoroisoquinolin-1(2H)-one] | < 50 | 
Cc1cc(F)cc2c(=O)[nH]c(CCC(=O)N3CCN(C(=O)C4CCCCC4)CC3)cc12 [Example 173, 3-(3-(4-(cyclohexanecarbonyl)piperazin-1-yl)-3-oxopropyl)-7-fluoro-5-methylisoquinolin-1(2H)-one] | < 50 | 
O=C(CCc1cc2cccc(F)c2c(=O)[nH]1)N1CCN(C(=O)C2CCCC2)CC1 [Example 174, 3-(3-(4-(cyclopentanecarbonyl)piperazin-1-yl)-3-oxopropyl)-8-fluoroisoquinolin-1(2H)-one] | < 50 | 
Cc1ccc(F)c2c(=O)[nH]c(CCCN3C4CCC3CN(c3ccc(C#N)cc3)C4)cc12 [Example 197] | < 50 | 

Second part, the compound after the results:

inhibition at 0.001 µM [%] | IC50 (PARP-1 enzyme activity) [nM] | SMILES
< 50 |  | Cc1ccc(F)c2c(=O)[nH]c(CCC(=O)N3CCN(C(=O)C4CCCC4)CC3)cc12 [Example 175, 3-(3-(4-(cyclopentanecarbonyl)piperazin-1-yl)-3-oxopropyl)-8-fluoro-5-methylisoquinolin-1(2H)-one]
< 50 |  | O=C(CCc1cc2ccc(F)cc2c(=O)[nH]1)N1CCN(C(=O)C2CCCC2)CC1 [Example 176, 3-(3-(4-(cyclopentanecarbonyl)piperazin-1-yl)-3-oxopropyl)-7-fluoroisoquinolin-1(2H)-one]
< 50 |  | Cc1cc(F)cc2c(=O)[nH]c(CCC(=O)N3CCN(C(=O)C4CCCC4)CC3)cc12 [Example 177, 3-(3-(4-(cyclopentanecarbonyl)piperazin-1-yl)-3-oxopropyl)-7-fluoro-5-methylisoquinolin-1(2H)-one]
< 50 |  | O=C(CCc1cc2cccc(F)c2c(=O)[nH]1)N1CCN(C(=O)C2CCC2)CC1 [Example 178, 3-(3-(4-(cyclobutanecarbonyl)piperazin-1-yl)-3-oxopropyl)-8-fluoroisoquinolin-1(2H)-one]
< 50 |  | Cc1ccc(F)c2c(=O)[nH]c(CCC(=O)N3CCN(C(=O)C4CCC4)CC3)cc12 [Example 179, 3-(3-(4-(cyclobutanecarbonyl)piperazin-1-yl)-3-oxopropyl)-8-fluoro-5-methylisoquinolin-1(2H)-one]
< 50 |  | O=C(CCc1cc2ccc(F)cc2c(=O)[nH]1)N1CCN(C(=O)C2CCC2)CC1 [Example 180, 3-(3-(4-(cyclobutanecarbonyl)piperazin-1-yl)-3-oxopropyl)-7-fluoroisoquinolin-1(2H)-one]
< 50 |  | Cc1cc(F)cc2c(=O)[nH]c(CCC(=O)N3CCN(C(=O)C4CCC4)CC3)cc12 [Example 181, 3-(3-(4-(cyclobutanecarbonyl)piperazin-1-yl)-3-oxopropyl)-7-fluoro-5-methylisoquinolin-1(2H)-one]
< 50 |  | O=C(CCc1cc2cccc(F)c2c(=O)[nH]1)N1CCN(C(=O)C2CC2)CC1 [Example 182, 3-(3-(4-(cyclopropanecarbonyl)piperazin-1-yl)-3-oxopropyl)-8-fluoroisoquinolin-1(2H)-one]
< 50 | 14.7 | Cc1ccc(F)c2c(=O)[nH]c(CCC(=O)N3CCN(C(=O)C4CC4)CC3)cc12 [Example 183, 3-(3-(4-(cyclopropanecarbonyl)piperazin-1-yl)-3-oxopropyl)-8-fluoro-5-methylisoquinolin-1(2H)-one]
< 50 |  | O=C(CCc1cc2ccc(F)cc2c(=O)[nH]1)N1CCN(C(=O)C2CC2)CC1 [Example 184, 3-(3-(4-(cyclopropanecarbonyl)piperazin-1-yl)-3-oxopropyl)-7-fluoroisoquinolin-1(2H)-one]
< 50 |  | Cc1cc(F)cc2c(=O)[nH]c(CCC(=O)N3CCN(C(=O)C4CC4)CC3)cc12 [Example 185, 3-(3-(4-(cyclopropanecarbonyl)piperazin-1-yl)-3-oxopropyl)-7-fluoro-5-methylisoquinolin-1(2H)-one]
< 50 |  | CC(C)C(=O)N1CCN(C(=O)CCc2cc3cccc(F)c3c(=O)[nH]2)CC1 [Example 186, 8-fluoro-3-(3-(4-isobutyrylpiperazin-1-yl)-3-oxopropyl)isoquinolin-1(2H)-one]
< 50 |  | Cc1ccc(F)c2c(=O)[nH]c(CCC(=O)N3CCN(C(=O)C(C)C)CC3)cc12 [Example 187, 8-fluoro-3-(3-(4-isobutyrylpiperazin-1-yl)-3-oxopropyl)-5-methylisoquinolin-1(2H)-one]
< 50 |  | CC(C)C(=O)N1CCN(C(=O)CCc2cc3ccc(F)cc3c(=O)[nH]2)CC1 [Example 188, 7-fluoro-3-(3-(4-isobutyrylpiperazin-1-yl)-3-oxopropyl)isoquinolin-1(2H)-one]
< 50 |  | Cc1cc(F)cc2c(=O)[nH]c(CCC(=O)N3CCN(C(=O)C(C)C)CC3)cc12 [Example 189, 7-fluoro-3-(3-(4-isobutyrylpiperazin-1-yl)-3-oxopropyl)-5-methylisoquinolin-1(2H)-one]
< 50 |  | O=C(CCc1cc2cccc(F)c2c(=O)[nH]1)N1CCN(C(=O)C2CCCO2)CC1 (stereo not shown) [Example 190, 8-fluoro-3-(3-oxo-3-(4-(tetrahydrofuran-2-carbonyl)piperazin-1-yl)propyl)isoquinolin-1(2H)-one]
< 50 |  | Cc1ccc(F)c2c(=O)[nH]c(CCC(=O)N3CCN(C(=O)C4CCCO4)CC3)cc12 (stereo not shown) [Example 191, 8-fluoro-5-methyl-3-(3-oxo-3-(4-(tetrahydrofuran-2-carbonyl)piperazin-1-yl)propyl)isoquinolin-1(2H)-one]
< 50 |  | O=C(CCc1cc2ccc(F)cc2c(=O)[nH]1)N1CCN(C(=O)C2CCCO2)CC1 (stereo not shown) [Example 192, 7-fluoro-3-(3-oxo-3-(4-(tetrahydrofuran-2-carbonyl)piperazin-1-yl)propyl)isoquinolin-1(2H)-one]
< 50 |  | Cc1cc(F)cc2c(=O)[nH]c(CCC(=O)N3CCN(C(=O)C4CCCO4)CC3)cc12 (stereo not shown) [Example 193, 7-fluoro-5-methyl-3-(3-oxo-3-(4-(tetrahydrofuran-2-carbonyl)piperazin-1-yl)propyl)isoquinolin-1(2H)-one]
< 50 |  | Cc1ccc(F)c2c(=O)[nH]c(CCC(=O)N3CCN(C(=O)[C@H](C)N)CC3)cc12 [Example 194, 3-(3-(4-(L-alanyl)piperazin-1-yl)-3-oxopropyl)-8-fluoro-5-methylisoquinolin-1(2H)-one hydrochloride]
< 50 |  | Cc1ccc(F)c2c(=O)[nH]c(CCC(=O)N3CCN(C(=O)[C@@H](N)Cc4ccccc4)CC3)cc12 [Example 195, 3-(3-(4-(L-phenylalanyl)piperazin-1-yl)-3-oxopropyl)-8-fluoro-5-methylisoquinolin-1(2H)-one hydrochloride]
< 50 |  | Cc1ccc(F)c2c(=O)[nH]c(CCC(=O)N3CCN(C(=O)C4CCCN4)CC3)cc12 (stereo not shown) [Example 196, hydrochloride]

Source: patent US12459899B2, “Isoquinolinone derivatives, method for preparing the same, and pharmaceutical composition for preventing or treating poly(ADP-ribose) polymerase-1-related diseases, comprising the same as active ingredient” (DIGMBIO. INC., priority 2019, dated 2025)
